Measured values from US20250041312A1, “METHODS OF ADMINISTERING A MODULATOR OF HEMOGLOBIN” (Global Blood Therapeutics, Inc., priority 2021, published 2025).
Like-named read-outs stand apart in the source and are kept apart here.

Tests used:
[1] = target: T1, hemoglobin (Homo sapiens, UniProt P68871+P69905, E7V); assay: Percent Hb occupancy in SCD patients (single dose, MAD-1, MAD-2, MAD-3); type: in vivo; details: for receptor occupancy at 150 mg / receptor occupancy at 50 mg / receptor occupancy at 100 mg: human; for receptor occupancy at 50 mg: 50 mg QD × 5 weeks (MAD-1); for receptor occupancy at 100 mg: 100 mg QD × 3 weeks (MAD-2)
T1 construct: divided by the molar concentration of hemoglobin in RBCs; endogenous in cells; host or cells: red blood cells / blood of patients with SCD (HbSS)
Protocol: (§1) In some embodiments, the therapeutically effective amount is determined by measuring the percent of hemoglobin occupied by the compound, i.e., the percent Hb occupancy. The percent Hb occupancy is a measure of target engagement defined as the percentage of hemoglobin bound by a compound (e.g., Compound I) calculated as the molar concentration of the compound (e.g., Compound I) in RBCs divided by the molar concentration of hemoglobin in RBCs (the mean corpuscular hemoglobin concentration calculated from the hematology panel). The values for concentration of a compound (e.g., Compound I) in RBCs is calculated from the concentrations in whole blood and plasma, and the hematocrit.
(§2) After a washout period of at least 56 days (so that elimination PK of Compound I could be assessed), the patients were administered a loading dose of 300 mg per day of Compound I for one day followed by 200 mg per day of Compound I for one day, and then were administered a maintenance dose of 50 mg per day of Compound I for five weeks (“MAD-1 Cohort”). The same patients then received another loading dose of 500 mg per day of Compound I for one day followed by 400 mg per day of Compound I for one day, and then were administered another maintenance dose of 100 mg per day of Compound I for three weeks (“MAD-2 Cohort”). The total treatment period of the MAD-1 Cohort and MAD-2 Cohort was 8 weeks.
(§3) Following the conclusion of the MAD-2 study and a washout period of about 8 months, the selected patients (n=4) were administered a loading dose of 300 mg BID for 4 days, followed thereafter by a maintenance dose of 150 mg QD (MAD-3 Cohort).

[2] = MAD study in healthy volunteers: whole blood and plasma PK; type: in vivo, human; details: for Cmax / Tmax / AUC(0-t) / concentration at 14 day: human; for Tmax: median; for AUC(0-t): read-out: AUC0-24; for concentration at 14 day: read-out: Cmin
[3] = target: T2, hemoglobin (Homo sapiens, UniProt P68871+P69905); assay: Percent Hb occupancy after repeated administration, healthy volunteers; type: in vivo
T2 construct: divided by the molar concentration of hemoglobin in RBCs; endogenous in cells; host or cells: red blood cells of healthy volunteers (in vivo)
Protocol: as §1
(§4) Another study was initiated in healthy volunteer aged 18-55 years old to evaluate the safety and tolerability of multiple ascending doses of Compound I. Four cohorts of 10 subjects each (n=7 Compound I, n=3 placebo) were evaluated in a sequential double-blind manner. To reach steady state levels each subject received a loading dose regimen for 3 or 4 days followed by once daily medication for up to 14 days. Primary endpoints were safety and tolerability; key secondary endpoints included PK and effect on electrocardiogram (ECG) parameters. Table 7 below provides an overview of the doses of Compound I or placebo that were used in each cohort.
(§5) Preliminary whole blood PK parameters (geometric mean and % CV) and hemoglobin occupancy in healthy volunteers of the 15 mg, 25 mg, 50 mg, and 75 mg MAD cohorts are summarized in Table 10.

[4] = SCD cohort PK after repeated dosing; type: in vivo, human; details: for Cmax: 150 mg
Protocol: as §2, §3
The concentrations of Compound I in whole blood and plasma at week 6 in patients who participated in the MAD-3 cohort are shown in Table 19.

[5] = MAD study in healthy volunteers: whole blood and plasma PK; type: in vivo, human; details: for AUC(0-t): read-out: AUC0-24; for concentration at 14 day: read-out: Cmin
Protocol: as §4, §5

[6] = SCD, read-out: Hemoglobin Occupancy (%) at Cmax, mean
[7] = SCD, read-out: Hemoglobin Occupancy (%) at Cmin, mean
[8] = HV MAD Day 14, 15 mg QD maintenance, plasma
[9] = HV MAD Day 14, 15 mg QD maintenance, whole blood
[10] = HV MAD Day 14, 25 mg QD maintenance, plasma
[11] = HV MAD Day 14, 25 mg QD maintenance, whole blood
[12] = HV MAD Day 14, 50 mg QD maintenance, plasma
[13] = HV MAD Day 14, 75 mg QD maintenance, plasma
[14] = HV MAD Day 14, 75 mg QD maintenance, whole blood

- % Hb occupancy based on Cmax ([1]; SCD single 100 mg, mean): 3.3%
- patients who achieved Hb occupancy >40% ([1]; SCD, 100 mg dose level): two out of six
- mean Hb occupancy ([1]; adults with SCD, maintenance doses 100 mg and 150 mg QD): > 30%
- receptor occupancy at 150 mg ([1]; MAD-3 (150 mg QD) week 6, SCD patient 0001): 48%
- receptor occupancy at 150 mg ([1]; MAD-3 (150 mg QD) week 6, SCD patient 0003 (did not adhere to regimen)): 7%
- receptor occupancy at 150 mg ([1]; MAD-3 (150 mg QD) week 6, SCD patient 0004 (Hb and hematocrit increases lower the occupancy value)): 31%
- receptor occupancy at 150 mg ([1]; MAD-3 (150 mg QD) week 6, SCD patient 0005): 46%
- receptor occupancy at 50 mg [1, 6]: 17.7%
- receptor occupancy at 50 mg [1, 7]: 15.3%
- receptor occupancy at 100 mg [1, 6]: 32.6%
- receptor occupancy at 100 mg [1, 7]: 29.8%
- B:P ratio (mean AUC0-24 blood:mean AUC0-24 plasma) ([2]; HV MAD Day 14, 15 mg QD maintenance): 182
- B:P ratio (mean AUC0-24 blood:mean AUC0-24 plasma) ([2]; HV MAD Day 14, 25 mg QD maintenance): 194
- B:P ratio (mean AUC0-24 blood:mean AUC0-24 plasma) ([2]; HV MAD Day 14, 50 mg QD maintenance): 149
- PK among cohorts with multiple ascending doses ([2]; HV, loading 300 mg x 3 days, maintenance 15, 25, 50 or 75 mg x 14 days (FIG. 2)): linear, dose-proportional PK
- Cmax ([2]; HV MAD Day 14, 15 mg QD maintenance (loading 200 mg x 3 days), whole blood): 130000 ng/mL
- Cmax [2, 8]: 830 ng/mL
- Tmax [2, 8]: 1 h
- AUC(0-t) [2, 8]: 15.6 µg·h/mL
- concentration at 14 day [2, 8]: 680 ng/mL
- Tmax [2, 9]: 6 h
- concentration at 14 day [2, 9]: 121000 ng/mL
- Cmax ([2]; HV MAD Day 14, 25 mg QD maintenance (loading 200 mg x 3 days), whole blood): 141000 ng/mL
- Cmax [2, 10]: 900 ng/mL
- Tmax [2, 10]: 1.5 h
- AUC(0-t) [2, 10]: 15.9 µg·h/mL
- concentration at 14 day [2, 10]: 660 ng/mL
- Tmax [2, 11]: 2 h
- AUC(0-t) [2, 11]: 3090 µg·h/mL
- Cmax ([2]; HV MAD Day 14, 50 mg QD maintenance (loading 500/400/400 mg), whole blood): 236000 ng/mL
- Cmax [2, 12]: 1990 ng/mL
- Tmax [2, 12]: 1 h
- AUC(0-t) [2, 12]: 34.5 µg·h/mL
- concentration at 14 day [2, 12]: 1450 ng/mL
- concentration at 14 day ([2]; HV MAD Day 14, 50 mg QD maintenance, whole blood): 210000 ng/mL
- Cmax [2, 13]: 2740 ng/mL
- Tmax [2, 13]: 1 h
- AUC(0-t) [2, 13]: 48.6 µg·h/mL
- concentration at 14 day [2, 13]: 2220 ng/mL
- Tmax [2, 14]: 3 h
- AUC(0-t) [2, 14]: 6760 µg·h/mL
- receptor occupancy at 15 mg ([3]; HV MAD Day 14, 15 mg QD maintenance (loading 200 mg x 3 days)): 16%
- receptor occupancy at 25 mg ([3]; HV MAD Day 14, 25 mg QD maintenance (loading 200 mg x 3 days)): 16.3%
- receptor occupancy at 50 mg ([3]; HV MAD Day 14, 50 mg QD maintenance (loading 500/400/400 mg)): 25.8%
- receptor occupancy at 75 mg ([3]; HV MAD Day 14, 75 mg QD maintenance (loading 500/500/500/400 mg)): 35.2%
- time to steady-state concentrations with model-selected first doses ([4]; SCD, loading doses followed by 50 mg and 100 mg second doses (FIG. 15)): ≤ 1 week
- half-life ([4]; human, in vivo, SCD, after the last dose (MAD-2), assessed over about 15 weeks, read-out: elimination t1/2 (converted)): ~240 h
- Cmax ([4]; human, plasma, MAD-3 (150 mg QD) week 6, SCD patient 0001, read-out: Plasma (Cmax) Concentration): 6980 ng/mL
- Cmax ([4]; human, plasma, MAD-3 (150 mg QD) week 6, SCD patient 0003 (did not adhere to regimen), read-out: Plasma (Cmax) Concentration): 1610 ng/mL
- Cmax ([4]; human, plasma, MAD-3 (150 mg QD) week 6, SCD patient 0004, read-out: Plasma (Cmax) Concentration): 3830 ng/mL
- Cmax ([4]; human, plasma, MAD-3 (150 mg QD) week 6, SCD patient 0005, read-out: Plasma (Cmax) Concentration): 7610 ng/mL
- Cmax ([4]; human, whole blood, MAD-3 (150 mg QD) week 6, SCD patient 0001, read-out: Whole Blood (Cmax) Concentration): 322000 ng/mL
- Cmax ([4]; human, whole blood, MAD-3 (150 mg QD) week 6, SCD patient 0003 (did not adhere to regimen), read-out: Whole Blood (Cmax) Concentration): 36700 ng/mL
- Cmax ([4]; human, whole blood, MAD-3 (150 mg QD) week 6, SCD patient 0004, read-out: Whole Blood (Cmax) Concentration): 259000 ng/mL
- Cmax ([4]; human, whole blood, MAD-3 (150 mg QD) week 6, SCD patient 0005, read-out: Whole Blood (Cmax) Concentration): 308000 ng/mL
- B:P ratio (mean AUC0-24 blood:mean AUC0-24 plasma) ([5]; HV MAD Day 14, 75 mg QD maintenance): 140
- AUC(0-t) ([5]; human, HV MAD Day 14, 15 mg QD maintenance, whole blood): 2840 µg·h/mL
- concentration at 14 day ([5]; human, HV MAD Day 14, 25 mg QD maintenance, whole blood): 135000 ng/mL
- Tmax ([5]; human, HV MAD Day 14, 50 mg QD maintenance, whole blood, median): 3 h
- AUC(0-t) ([5]; human, HV MAD Day 14, 50 mg QD maintenance, whole blood): 5140 µg·h/mL
- Cmax ([5]; human, HV MAD Day 14, 75 mg QD maintenance (loading 500/500/500/400 mg), whole blood): 308000 ng/mL
- concentration at 14 day ([5]; human, HV MAD Day 14, 75 mg QD maintenance, whole blood): 297000 ng/mL
Compound: O=Cc1c(O)cccc1OC[C@@H]1COCCN1C(=O)c1cccnc1CCO [Compound I, (S)-2-hydroxy-6-((4-(2-(2-hydroxyethyl)nicotinoyl)morpholin-3-yl)methoxy)benzaldehyde]
